Source: ChEMBL document CHEMBL5532641, “MNK, mTOR or eIF4E-selecting the best anti-tumor target for blocking translation initiation” (Eur J Med Chem, 2023)
Each block holds one compound with its values, some of them ahead of it.

Columns and labels:
Lymphoma cell line = experiment: cells; format: functional, cell-based; settings: Homo sapiens, 72 h
[1] = molecular target: Eukaryotic initiation factor 4A-I (Homo sapiens, UniProt P60842)
Leukemia cell = experiment: cells; format: functional, cell-based; settings: Homo sapiens, 72 h
mTORC1 (Homo sapiens) = mTORC1 (Homo sapiens) (UniProt P42345+Q8N122+Q9BVC4); settings: dose 500.0 nM
Chain of mTORC1 (Homo sapiens) (Q8N122 whole entry, looked up, other chains not shown): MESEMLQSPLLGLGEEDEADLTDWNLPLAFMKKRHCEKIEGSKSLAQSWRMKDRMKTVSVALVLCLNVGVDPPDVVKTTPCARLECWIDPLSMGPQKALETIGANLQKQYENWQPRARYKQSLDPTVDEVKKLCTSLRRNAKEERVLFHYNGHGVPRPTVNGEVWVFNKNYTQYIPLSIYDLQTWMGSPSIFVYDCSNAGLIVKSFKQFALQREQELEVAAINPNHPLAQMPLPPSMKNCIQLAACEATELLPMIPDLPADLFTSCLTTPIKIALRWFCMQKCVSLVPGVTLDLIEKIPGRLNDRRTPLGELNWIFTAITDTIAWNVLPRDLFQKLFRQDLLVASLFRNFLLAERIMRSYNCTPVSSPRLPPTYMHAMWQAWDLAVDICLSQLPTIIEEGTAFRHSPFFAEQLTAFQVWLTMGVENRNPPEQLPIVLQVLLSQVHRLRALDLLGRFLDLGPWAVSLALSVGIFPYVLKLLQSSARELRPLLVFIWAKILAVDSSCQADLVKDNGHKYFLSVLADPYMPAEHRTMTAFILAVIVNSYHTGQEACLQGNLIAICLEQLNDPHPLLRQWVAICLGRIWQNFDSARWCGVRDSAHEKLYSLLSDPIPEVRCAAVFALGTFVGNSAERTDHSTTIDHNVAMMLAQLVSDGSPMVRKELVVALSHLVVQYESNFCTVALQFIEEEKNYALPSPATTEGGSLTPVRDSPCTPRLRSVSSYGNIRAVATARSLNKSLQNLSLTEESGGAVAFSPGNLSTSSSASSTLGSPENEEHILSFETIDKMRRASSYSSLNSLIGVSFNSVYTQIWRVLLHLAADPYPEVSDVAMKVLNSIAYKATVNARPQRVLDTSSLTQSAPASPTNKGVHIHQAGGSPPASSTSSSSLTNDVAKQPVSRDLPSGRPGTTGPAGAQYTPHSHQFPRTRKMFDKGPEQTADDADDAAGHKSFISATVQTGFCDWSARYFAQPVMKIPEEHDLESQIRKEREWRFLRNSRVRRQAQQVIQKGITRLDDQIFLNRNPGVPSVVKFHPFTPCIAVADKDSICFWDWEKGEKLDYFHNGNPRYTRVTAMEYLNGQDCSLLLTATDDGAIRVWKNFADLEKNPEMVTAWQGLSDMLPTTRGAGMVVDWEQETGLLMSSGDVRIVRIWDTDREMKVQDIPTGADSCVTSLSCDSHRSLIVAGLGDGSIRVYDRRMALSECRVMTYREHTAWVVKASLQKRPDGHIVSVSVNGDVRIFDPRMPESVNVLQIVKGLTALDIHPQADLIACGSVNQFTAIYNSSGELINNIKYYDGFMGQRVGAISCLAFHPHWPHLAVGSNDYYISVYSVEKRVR
Chain of mTORC1 (Homo sapiens) (Q9BVC4 whole entry, looked up, other chains not shown): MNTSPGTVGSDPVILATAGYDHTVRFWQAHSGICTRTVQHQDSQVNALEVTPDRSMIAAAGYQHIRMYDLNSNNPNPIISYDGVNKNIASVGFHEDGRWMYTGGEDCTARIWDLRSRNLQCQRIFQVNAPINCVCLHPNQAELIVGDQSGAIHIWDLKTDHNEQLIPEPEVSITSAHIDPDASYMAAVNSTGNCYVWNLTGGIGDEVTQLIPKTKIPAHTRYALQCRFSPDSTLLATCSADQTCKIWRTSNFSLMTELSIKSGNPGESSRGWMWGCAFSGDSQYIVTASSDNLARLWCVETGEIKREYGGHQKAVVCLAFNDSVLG

in vivo = settings: mouse, po
A549 = experiment: cells; format: functional, cell-based; settings: Homo sapiens, A549, 70 min
[2] = molecular target: Phosphatidylinositol 4,5-bisphosphate 3-kinase catalytic subunit gamma isoform (Homo sapiens, UniProt P48736)
Chain of Phosphatidylinositol 4,5-bisphosphate 3-kinase catalytic subunit gamma isoform (P48736 whole entry, canonical isoform): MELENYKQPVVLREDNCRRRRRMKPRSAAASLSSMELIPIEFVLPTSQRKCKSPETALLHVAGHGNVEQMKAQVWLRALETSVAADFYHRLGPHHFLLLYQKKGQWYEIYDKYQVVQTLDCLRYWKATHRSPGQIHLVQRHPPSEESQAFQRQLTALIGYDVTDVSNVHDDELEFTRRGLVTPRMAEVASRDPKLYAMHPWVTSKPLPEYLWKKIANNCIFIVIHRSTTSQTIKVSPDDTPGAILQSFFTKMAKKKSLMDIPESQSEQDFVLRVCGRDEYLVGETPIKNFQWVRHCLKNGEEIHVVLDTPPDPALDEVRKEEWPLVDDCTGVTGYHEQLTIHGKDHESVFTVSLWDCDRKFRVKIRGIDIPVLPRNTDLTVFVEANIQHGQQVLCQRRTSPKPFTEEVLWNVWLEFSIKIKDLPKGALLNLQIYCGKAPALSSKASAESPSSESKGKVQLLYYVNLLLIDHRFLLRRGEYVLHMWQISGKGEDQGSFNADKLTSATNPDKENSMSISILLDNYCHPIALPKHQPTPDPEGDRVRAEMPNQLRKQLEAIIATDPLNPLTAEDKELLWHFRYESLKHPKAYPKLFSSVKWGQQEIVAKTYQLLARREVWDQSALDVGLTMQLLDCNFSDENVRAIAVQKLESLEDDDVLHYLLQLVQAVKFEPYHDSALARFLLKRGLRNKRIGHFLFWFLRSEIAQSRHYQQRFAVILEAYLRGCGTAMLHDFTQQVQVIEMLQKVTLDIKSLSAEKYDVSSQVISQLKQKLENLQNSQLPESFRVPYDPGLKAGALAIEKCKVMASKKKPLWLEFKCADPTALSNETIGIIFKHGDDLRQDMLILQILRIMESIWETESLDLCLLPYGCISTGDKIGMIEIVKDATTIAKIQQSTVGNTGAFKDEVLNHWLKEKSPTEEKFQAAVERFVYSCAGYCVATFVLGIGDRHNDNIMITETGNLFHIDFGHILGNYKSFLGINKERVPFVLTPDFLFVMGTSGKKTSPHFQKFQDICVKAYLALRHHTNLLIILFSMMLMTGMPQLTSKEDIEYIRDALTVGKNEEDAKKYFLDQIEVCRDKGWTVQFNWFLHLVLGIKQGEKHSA

CWR22R [3] = experiment: animal or person; format: functional, Homo sapiens; settings: Mus musculus, 22Rv1, 816 h, route ip, time 34 day, read-out: TGI
animal or person = format: functional; settings: Homo sapiens, BR100 cell, 408 h, route ip, time 17 day, read-out: TGI
CWR22R [4] = experiment: animal or person; format: functional, Homo sapiens; settings: Mus musculus, 22Rv1, 816 h, route ip, time 34 day, read-out: TGI; remark: listed apart in the source
MDA-MB-231 [5] = experiment: animal or person; format: functional, Homo sapiens; settings: Mus musculus, MDA-MB-231, 696 h, route ip, time 29 day, read-out: TGI
MDA-MB-231 [6] = experiment: animal or person; format: functional, Homo sapiens; settings: Mus musculus, MDA-MB-231, 696 h, route ip, time 29 day, read-out: TGI; remark: listed apart in the source
MDA-MB-231 [7] = experiment: animal or person; format: functional, Homo sapiens; settings: Mus musculus, MDA-MB-231, 696 h, route ip, time 29 day, read-out: TGI; remark: listed apart in the source
[8] = molecular target: MAP kinase-interacting serine/threonine-protein kinase 2 (Homo sapiens, UniProt Q9HBH9)
Chain of MAP kinase-interacting serine/threonine-protein kinase 2 (Q9HBH9 whole entry): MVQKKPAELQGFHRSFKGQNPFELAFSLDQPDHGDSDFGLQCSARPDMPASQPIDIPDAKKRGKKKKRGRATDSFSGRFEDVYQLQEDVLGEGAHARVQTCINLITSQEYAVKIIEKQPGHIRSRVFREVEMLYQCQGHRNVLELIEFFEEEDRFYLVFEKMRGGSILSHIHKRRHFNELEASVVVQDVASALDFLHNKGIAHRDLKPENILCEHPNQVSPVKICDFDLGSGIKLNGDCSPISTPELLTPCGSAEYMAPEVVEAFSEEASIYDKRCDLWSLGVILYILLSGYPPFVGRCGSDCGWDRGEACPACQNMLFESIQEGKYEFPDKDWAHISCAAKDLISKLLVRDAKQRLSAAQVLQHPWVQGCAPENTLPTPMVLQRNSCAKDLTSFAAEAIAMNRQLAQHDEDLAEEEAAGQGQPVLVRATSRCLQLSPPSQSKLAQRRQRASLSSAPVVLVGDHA

EIF4E/EIF4G1 = EIF4E/EIF4G1 (Homo sapiens, UniProt P06730+Q04637); format: protein-complex assay

Chain of Eukaryotic initiation factor 4A-I (P60842 whole entry): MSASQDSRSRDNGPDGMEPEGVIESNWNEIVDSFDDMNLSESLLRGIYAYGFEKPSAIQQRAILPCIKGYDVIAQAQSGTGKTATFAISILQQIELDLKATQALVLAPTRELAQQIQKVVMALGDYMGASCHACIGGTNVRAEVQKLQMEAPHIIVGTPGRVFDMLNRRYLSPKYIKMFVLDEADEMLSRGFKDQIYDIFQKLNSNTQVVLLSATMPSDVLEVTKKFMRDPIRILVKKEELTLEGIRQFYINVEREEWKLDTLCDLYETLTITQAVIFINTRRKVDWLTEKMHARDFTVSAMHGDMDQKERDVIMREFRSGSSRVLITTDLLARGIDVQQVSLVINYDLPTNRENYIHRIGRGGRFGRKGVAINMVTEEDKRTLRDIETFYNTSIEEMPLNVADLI

- IC50 (Lymphoma cell line): 1600 nM
- IC50 [1]: 16400 nM
- IC50 (Leukemia cell): 1700 nM
SMILES: C=C1C[C@@H](O)[C@@H](Br)C(C)(C)[C@]12CCC(C)=C(Cl)C2

- inhibition (mTORC1 (Homo sapiens)): 83.9%
SMILES: Oc1cccc(-c2nc(N3CCOCC3)c3oc4ncccc4c3n2)c1

- IC50 (A549): 6000 nM
SMILES: O=C(O)/C(Cc1ccccc1[N+](=O)[O-])=N/Nc1nc(-c2ccc(Cl)c(Cl)c2)cs1

- IC50 [2]: 0.024 nM
SMILES: COc1ncc(-c2ccc3nccc(-c4ccnnc4)c3c2)cc1NS(=O)(=O)c1ccc(F)cc1F [OMIPALISIB]

The next lines start with the compound.

SMILES: COC(=O)[C@H]1[C@@H](O)[C@@]2(O)c3c(OC)cc(O[C@@H]4O[C@@H]([C@H](O)CO)CO[C@H]4OC)cc3O[C@@]2(c2ccc(OC)cc2)[C@@H]1c1ccccc1 [SILVESTROL]
- bioavailability (in vivo): 1%

SMILES: CC1=C(/C=C/C(C)=C/C=C/C(C)=C/C(=O)Nc2ccc(F)cc2)C(C)(C)CCC1n1ccnc1 (stereo not given)
- inhibition in vivo at 20 mg/kg (CWR22R [3]): 76.3%
- inhibition in vivo at 10 mg/kg (animal or person): 73.3%
- inhibition in vivo at 10 mg/kg (CWR22R [4]): 63.4%
- inhibition in vivo at 5 mg/kg (MDA-MB-231 [5]): 91%
- inhibition in vivo at 20 mg/kg (MDA-MB-231 [6]): 97%
- inhibition in vivo at 10 mg/kg (MDA-MB-231 [7]): 97%

SMILES: C[C@H](CN)Oc1ccc2ncc(-c3cc4ccccc4o3)n2n1
- IC50 [8]: 904 nM

SMILES: O=C(O)c1cc(-c2ccc(/C=C3\SC(=S)N(Cc4ccccc4)C3=O)o2)ccc1Cl
- IC50 (EIF4E/EIF4G1): 13500 nM
